One assay deals with E. aerogenes S95. Put plainly: MIC of cephalothin alone and in combination with inhibitor, E. aerogenes S95 (microbroth dilution). The format is cell-based. The note with it: Klebsiella aerogenes, cephalothin alone, MHB, 5 × 10^5 cfu/ml, 16 h/35° C. The procedure:
(§1) MIC values of cephalothin in combination with
(§2) β-lactamase inhibitors Ia and Ic.
(§3) Microbroth Dilution Method, MHB; Inoculum, 5 × 10^5 cfu/ml;
(§4) Incubation, 16 h/35° C.;
(§5) *Concentration of inhibitor = 5 mg/ml (fixed).
(Dilution methods test growth across graded concentrations, often in twofold steps.)

In a further assay the test system is C. freundii S40. Put plainly: MIC of cephalothin alone and in combination with inhibitor, C. freundii S40 (microbroth dilution). Format: cell-based. Particulars: Citrobacter freundii, cephalothin alone, MHB, 5 × 10^5 cfu/ml, 16 h/35° C. On the procedure: as §1, §2, §3, §4, §5
Assay [1] deals with T1, cephalosporinase, which was isolated from Enterobacter cloacae (Enterobacter cloacae, UniProt P05364).
T1 construct: which was isolated from Enterobacter cloacae; endogenous in cells; host or cells: Enterobacter cloacae
T1 sequence (P05364 21-381): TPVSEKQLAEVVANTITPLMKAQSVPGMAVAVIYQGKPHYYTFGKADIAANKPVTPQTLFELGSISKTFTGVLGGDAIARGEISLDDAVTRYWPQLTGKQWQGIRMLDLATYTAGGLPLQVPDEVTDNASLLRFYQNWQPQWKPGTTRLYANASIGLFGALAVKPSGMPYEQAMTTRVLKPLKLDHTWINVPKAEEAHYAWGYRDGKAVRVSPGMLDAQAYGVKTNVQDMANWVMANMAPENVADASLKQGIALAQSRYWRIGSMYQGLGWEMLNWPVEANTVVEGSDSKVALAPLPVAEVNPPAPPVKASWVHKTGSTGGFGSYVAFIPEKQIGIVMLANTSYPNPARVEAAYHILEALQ
As to the kind of experiment: inhibition of representative cephalosporinase isolated from Enterobacter cloacae. The format is biochemical. Particulars: read-out: IC50 against representative cephalosporinase. The source says:
[…]. Because of such differences in IC50 value against different types of β-lactamases, these inhibitors are regarded as selective cephalosporinase-inhibitors at the low concentration.

The subject of another assay is Gram-negative bacteria. As to the kind of experiment: whole cell bacteria: antibacterial activity of the inhibitors alone and synergy with cephalothin. Format: cell-based. The note with it: for synergistic activity against Gram-negative bacteria: in combination with cephalothin, whole cell bacteria; for antibacterial activity of the inhibitors themselves: inhibitor alone.

The subject of assay [2] is class C cephalosporinases. Particulars: chromosomally encoded inducible cephalosporinases; cited from earlier work.
The next assay relates to bacteria. Particulars: in combination with amoxycillin, ampicillin, piperacillin, respectively; cited from earlier work.

pIC50: −log10 of the molar value.

In general, MIC refers to the lowest concentration found to suppress growth. Consider `CC(=O)OCC1=C(C(=O)O)N2C(=O)[C@@H](NC(=O)Cc3cccs3)[C@H]2SC1` [Cephalothin], for which the MIC with E. aerogenes S95 is greater than 256 µg/mL; in the assay on C. freundii S40, 256 µg/mL.

For orientation: pIC50 means the negative decadic logarithm of the IC50, by convention in mol/L. Regarding `C=CCOC(=O)C(C(=O)N[C@@H]1C(=O)N2[C@@H]1SC(C)(C)[C@@H]2C(=O)O)=C1SC=CS1` [IIa, 6β-[(Allyloxycarbonyl)(1,3-dithiolen-2-ylidene)acetamido]-2,2-dimethylpenam-3-carboxylic acid], the pIC50 in assay [1] is 8.15.

Turning to `COC(=O)C(C(=O)N[C@@H]1C(=O)N2[C@@H]1SC(C)(C)[C@@H]2C(=O)O)=C1SCCS1` [Ia, 6β-[(1,3-Dithiolan-2-ylidene)(methoxycarbonyl)acetamido]-2,2-dimethylpenam-3-carboxylic acid], in the assay on Gram-negative bacteria, the “synergistic activity against Gram-negative bacteria” value is “synergistic activity” and the “antibacterial activity of the inhibitors themselves” value is “no antibacterial activity at the concentration up to 128 mg/ml”. The pIC50 in assay [1] was 9.21.

Regarding `CCOC(=O)C(C(=O)N[C@@H]1C(=O)N2[C@@H]1SC(C)(C)[C@@H]2C(=O)O)=C1SCCS1` [Ib, 6β-[(1,3-Dithiolan-2-ylidene)(ethoxycarbonyl)acetamido]-2,2-dimethylpenam-3-carboxylic acid], the pIC50 in assay [1] is 9.31. `CC1(C)S[C@@H]2[C@H](NC(=O)C(C(=O)O)=C3SCCS3)C(=O)N2[C@H]1C(=O)O` [Ic, Disodium 6β-[carboxylato(1,3-dithiolan-2-ylidene)acetamido]-2,2-dimethylpenam-3-carboxylate]: in the assay with Gram-negative bacteria, the “synergistic activity against Gram-negative bacteria” value is on record as “synergistic activity” and the “antibacterial activity of the inhibitors themselves” value is reported as “no antibacterial activity at the concentration up to 128 mg/ml”. Moreover, in assay [1], the pIC50 was 8.04.

For the compound `CCOC(=O)C(C(=O)N[C@@H]1C(=O)N2[C@@H](C(=O)O)C(C)(C)S(=O)(=O)[C@H]12)=C1SCCS1` [Id, 6β-[(1,3-Dithiolan-2-ylidene)(ethoxycarbonyl)acetamido]-2,2-dimethylpenam-3-carboxylic acid 1,1-dioxide], the pIC50 in assay [1] is 6.82.

As for `O=C(O)[C@H]1/C(=C/CO)O[C@@H]2CC(=O)N21` [clavulanic acid], the “protection of antibiotics from class C cephalosporinases” value (shortened to “protection of antibiotics”) in assay [2] was “failed to protect the antibiotics”. Also, the “enhancement of effectiveness of conventional antibiotics” value (“enhancement” for short) in the assay on bacteria is reported as “proved to enhance the effectiveness of conventional antibiotics against many bacteria”. As to `CC1(C)[C@H](C(=O)O)N2C(=O)C[C@H]2S1(=O)=O` [sulbactam], in assay [2], the “protection of antibiotics” value was “failed to protect the antibiotics”. The “enhancement” value with bacteria is reported as “proved to enhance the effectiveness of conventional antibiotics against many bacteria”. As to `C[C@]1(Cn2ccnn2)[C@H](C(=O)O)N2C(=O)C[C@H]2S1(=O)=O` [tazobactam], the “protection of antibiotics” value in assay [2] is reported as “failed to protect the antibiotics”. Also, in the assay with bacteria, the “enhancement” value is on record as “proved to enhance the effectiveness of conventional antibiotics against many bacteria”.

The record behind these values is US5464616A, “6β-substituted penicillanic acids as beta-lactamase inhibitors” (Synphar Laboratories, Ind., priority 1994, dated 1995).
